Results: patent US20240246941A1, “SUBSTITUTED 4-(3-AMINOPROP-1-YL)AMINOQUINOLINE ANALOGS AS MODULATORS OF MELANOMA-ASSOCIATED ANTIGEN 11 UBIQUITIN LIGASE” (ST. JUDE CHILDREN'S RESEARCH HOSPITAL, INC., priority 2020, published 2024)

Each compound was assayed against interaction between GST-MAGEA11 MHD and FAM-PCF11_4 peptide (MAGE-A11:PCF11) (Homo sapiens (Human), UniProt P43364) (assay: TR-FRET dose response competition assay for disruption of MAGE-A11:PCF11 binding). Conditions: Dose response TR-FRET screening of nine scaffold groups against MAGE-A11:PCF11; read-out: consensus IC50.
Sequence of interaction between GST-MAGEA11 MHD and FAM-PCF11_4 peptide (MAGE-A11:PCF11) (P43364 218-429): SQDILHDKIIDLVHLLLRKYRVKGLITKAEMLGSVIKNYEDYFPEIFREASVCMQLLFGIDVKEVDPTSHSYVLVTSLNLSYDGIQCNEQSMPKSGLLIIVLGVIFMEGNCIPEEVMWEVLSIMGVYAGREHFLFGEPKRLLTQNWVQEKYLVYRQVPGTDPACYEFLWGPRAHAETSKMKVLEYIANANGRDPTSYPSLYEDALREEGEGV
Outline: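 Competition TR-FRET at room temperature in 50 mM Tris pH 7.5, 20 mM MgCl2, 0.1 mg/ml BSA, 1 mM DTT: final 5 nM GST-MAGEA11 MHD, 5 nM Tb-anti-GST, 200 nM FAM-PCF11_4, 90 min. Ratio 520/490 nm converted to % inhibition; IC50 from sigmoidal fit.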

SMILES	IC50 [µM]
COc1cc(NCc2ccc3nc(N)nc(N)c3c2C)cc(OC)c1OC [SJ000574313-7]	9.46
CCCCCCCCOc1ccc(NC2=C(N)C(=O)c3ccccc3C2=O)cc1 [SJ000562629-1]	54.8
Cc1cc(C)cc(NC2=C(N)C(=O)c3ccccc3C2=O)c1 [SJ000562641-1]	55
CCCCn1c(=O)[nH]c(=O)c2c1nc(-c1ccc(C)c([N+](=O)[O-])c1)n2CC [SJ000378919-1]	69.9
Cc1ccc(-c2nc(S(=O)(=O)c3ccc(Cl)cc3)c(N3CCOCC3)o2)cc1 [SJ000140851-1]	69.9
N#CCCn1cnc2cc(-c3ccc(Br)cc3)sc2c1=O [SJ000397713-1]	69.9
CCCN1C(=O)c2ccccc2NC1c1ccc(OC)c(COc2ccc([N+](=O)[O-])cc2)c1 (stereo not drawn) [SJ000288430-1]	69.9
COc1cc(Cc2ccc3c(NCCCNCc4cccc(OC)c4O)ccnc3c2)cc(OC)c1 [SJ000311311-1]	33.6
Cc1ccc(Nc2nc(N)c3ccccc3n2)cc1C [SJ000202381-1]	69.9
COCCCn1c(-c2ccc(C#N)cc2)nc2c1c(=O)[nH]c(=O)n2Cc1ccccc1 [SJ000420075-1]	69.9
CCCCOC(=O)c1ccc(NC2=C(Cl)C(=O)c3ccccc3C2=O)cc1 [SJ000024923-1]	69.9
CCn1c2ccccc2c2cc(CN3CCc4nnc(C(C)NC(=O)CCOC)n4CC3)ccc21 (stereo not drawn) [SJ000307915-1]	69.9
COc1ccc(OC)c(Nc2nc(N)c3ccccc3n2)c1 [SJ000202008-1]	69.9
Cc1ccc(CNC(=O)Cn2cnc3cc(-c4ccc(Cl)cc4)sc3c2=O)cc1 [SJ000445272-1]	69.9
CCCCCn1c(-c2cccc(OC)c2)nc2c1c(=O)[nH]c(=O)n2CCCC [SJ000451928-1]	69.9
FC(F)(F)c1ccc2c(NCCCNCc3ccc4[nH]ccc4c3)ccnc2c1 [SJ000521054-1]	0.397
COc1ccc(C2Nc3ccccc3C(=O)N2CCCN2CCOCC2)cc1OC(F)F (stereo not drawn) [SJ000803760-1]	72.1
CCCn1c(=O)c2nc(-c3ccc(OCC(=O)Nc4ccc(C#N)cc4)cc3)[nH]c2n(CCC)c1=O [SJ000287997-2]	69.9
O=C1C(Cl)=C(N2CCOCC2)C(=O)c2ccccc21 [SJ000242799-1]	69.9
c1ccc(Oc2ccc3c(NCCCNCc4cccc5c4OCO5)ccnc3c2)cc1 [SJ000311208-1]	30.1
COc1ccc(C(F)(F)F)cc1CNCCCNc1ccnc2cc(Cl)ccc12 [SJ000521036-1]	69.9
CCCCOc1ccc(N(C(C)=O)C2=C(Cl)C(=O)c3ccccc3C2=O)cc1 [SJ000032717-1]	8.71
Nc1nc(Nc2ccc(Cl)c(Cl)c2)nc2ccccc12 [SJ000201376-1]	69.9
Cc1ccc(C2Nc3ccccc3C(=O)N2CCCN2CCOCC2)cc1 (stereo not drawn) [SJ000803768-1]	65.9
COc1ccc(Oc2ccc3c(NCCCNCc4cc(F)ccc4OC)ccnc3c2)cc1 [SJ000311221-1]	46.4
Cn1c(-c2ccc(OCC(=O)O)cc2)nc2c1c(=O)[nH]c(=O)n2Cc1ccccc1 [SJ000441071-1]	69.9

SMILES	IC50 [µM]
COc1ccc(CNCCCNc2ccnc3cc(Cl)ccc23)cc1O [SJ000311192-1]	69.9
Cc1ccc(C2Nc3ccccc3C(=O)N2Cc2ccccc2)cc1 (stereo not drawn) [SJ000019545-2]	69.9
NC1=C(Nc2cccc3ccccc23)C(=O)c2ccccc2C1=O [SJ000300361-1]	69.9
COc1cccc(CNCCCNc2ccnc3cc(Oc4ccc(F)cc4)ccc23)c1O [SJ000311223-1]	61.9
COc1cccc(Oc2ccc3c(NCCCNCc4cc(F)ccc4OC)ccnc3c2)c1 [SJ000311217-1]	36.8
CCCN1C(=O)c2ccccc2NC1c1ccc(C)cc1 (stereo not drawn) [SJ000288423-2]	69.9
CCN1CCN(c2nc(N)c3ccccc3n2)CC1 [SJ000202571-1]	69.9
COc1ccc(F)cc1CNCCCNc1ccnc2cc(-c3cc(C(F)(F)F)cc(C(F)(F)F)c3)ccc12 [SJ000311273-1]	7.69
CCCn1c(=O)[nH]c(=O)c2c1nc(-c1ccc(OC(F)F)c(OC)c1)n2CCOC [SJ000459257-1]	69.9
FC(F)(F)c1ccccc1CNCCCNc1ccnc2cc(Cl)ccc12 [SJ000520908-2]	69.9
CCCN1C(=O)c2ccccc2NC1c1cccc(F)c1 (stereo not drawn) [SJ000288416-1]	69.9
Cc1ccc(C)c(Nc2nc(N)c3ccccc3n2)c1 [SJ000192944-1]	69.9
Cc1ccccc1-c1nc(S(=O)(=O)c2ccc(Cl)cc2)c(N2CC(C)OC(C)C2)o1 (stereo not drawn) [SJ000329051-1]	69.9
CCCn1c(=O)c2nc(-c3ccc(OCC(=O)NCCN)cc3)[nH]c2n(CCC)c1=O [SJ000288288-2]	69.9
O=C(O)c1cccc(NC2=C(Cl)C(=O)c3ccccc3C2=O)c1 [SJ000022282-2]	69.9
CCCn1c(-c2ccc(SC)cc2)nc2c1c(=O)[nH]c(=O)n2Cc1ccccc1 [SJ000381119-1]	69.9
COc1ccccc1CNCCCNc1ccnc2cc(Cl)ccc12 [SJ000311185-1]	69.9
CCOc1ccc(-c2nc(C#N)c(N3CCOCC3)o2)cc1 [SJ000041896-1]	69.9
O=S(=O)(c1ccccc1)c1nc(-c2ccc(Cl)cc2)oc1N1CCOCC1 [SJ000230691-1]	69.9
N#Cc1nc(-c2ccc(F)cc2)oc1N1CCOCC1 [SJ000011204-1]	69.9
COc1cccc(CNCCCNc2ccnc3cc(CC(C)C)ccc23)c1O [SJ000311259-1]	68.5
CCCCCn1c(-c2ccc(F)c(Br)c2)nc2c1c(=O)[nH]c(=O)n2CCCC [SJ000378900-1]	2.64
CC(=O)N(C1=C(Cl)C(=O)c2ccccc2C1=O)c1cccc(I)c1 [SJ000024931-1]	69.9
COc1cccc(CNCCCNc2ccnc3cc(Oc4ccccc4)ccc23)c1O [SJ000311207-1]	69.9
COc1ccc(C2Nc3ccccc3C(=O)N2Cc2ccc(C)cc2)cc1 (stereo not drawn) [SJ000510743-1]	69.9
COc1ccc(F)cc1CNCCCNc1ccnc2cc(Cc3cccc(C(F)(F)F)c3)ccc12 [SJ000311301-2]	22.1

Same assay, conditions: Table 5, dose response TR-FRET screening of 59 quinoline compounds against MAGE-A11:PCF11; read-out: TR-FRET IC50

SMILES	IC50 [µM]
CCCN(CCCNc1ccnc2cc(C(F)(F)F)ccc12)CC(CC)CC [SJ000361269-1]	> 70
Oc1c(F)cc(F)cc1CN(CCCCNc1ccnc2cc(Cl)ccc12)Cc1ccccc1 [SJ000357506-2]	> 70
Clc1ccc2c(NCCCNCc3ccc[nH]3)ccnc2c1 [SJ000575192-1]	22.8
Cc1ccc(C)c(CN(CCCCNc2ccnc3cc(Cl)ccc23)Cc2ccccc2)c1 [SJ000361209-2]	> 70
CCCN(CCCNc1ccnc2cc(Cl)ccc12)Cc1ccc2ccccc2c1 [SJ000523040-1]	> 70
CCCN(CCCNc1ccnc2cc(Cl)ccc12)Cc1ccc2[nH]ccc2c1 [SJ000522746-2]	2.8
FC(F)(F)c1ccc2c(NCCCNCc3cc(Br)cs3)ccnc2c1 [SJ000521056-1]	> 70
CCCN(CCCNc1ccnc2cc(C(F)(F)F)ccc12)Cc1ccccc1OC [SJ000523072-1]	> 70

Same assay, conditions: Table 8, representative compounds; read-out: TR-FRET IC50

SMILES	IC50 [µM]
CCc1ccc(CNCCCNc2ccnc3cc(C(F)(F)F)ccc23)cc1 [SJ000521067]	40.9
COc1ccc(Oc2ccc3c(NCCCNCc4cccc(OC)c4O)ccnc3c2)cc1 [SJ000311219]	29.1
COc1ccc(-c2ccc3c(NCCCNCc4cccc(OC)c4O)ccnc3c2)cc1 [SJ000311295]	69.9
COc1ccc(F)cc1CNCCCNc1ccnc2cc(Oc3ccccc3OC)ccc12 [SJ000311213]	69.9
COc1cccc(CNCCCNc2ccnc3cc(C4CCCCC4)ccc23)c1O [SJ000311263]	32.4
COc1ccc(OC)c2c(O)cc(C)nc12 [SJ000284975]	> 69.9
COc1cccc(CNCCCNc2ccnc3cc(Oc4cccc(N(C)C)c4)ccc23)c1O [SJ000311231]	69.9
COc1ccc(Oc2ccc3c(NCCCNCc4cccc5c4OCO5)ccnc3c2)cc1 [SJ000311220]	43.7
COc1cccc(CNCCCNc2ccnc3cc(CCc4ccccc4)ccc23)c1O [SJ000311255]	26.6
COc1ccc(F)c(CNCCCNc2ccnc3cc(C(F)(F)F)ccc23)c1 [SJ000521058]	69.9
Fc1ccc(CNCCCNc2ccnc3cc(Cl)ccc23)cc1 [SJ000523062]	69.9
Nc1c2ccccc2nc2ccccc12 [SJ000285450]	> 75.5
CCCN(CCCCNc1ccnc2cc(Cl)ccc12)Cc1cc(Br)ccc1O [SJ000311196]	69.9
COc1ccc(F)cc1CNCCCNc1ccnc2cc(-c3cc(C(F)(F)F)cc(C(F)(F)F)c3)ccc12 [SJ000311273]	7.69

Each compound was assayed against MAGE-A11:PCF11 (Homo sapiens (Human), UniProt P43364) (assay: TR-FRET single point screening at 15 μM). Conditions: single point TR-FRET screening at 15 μM against MAGE-A11:PCF11.
Sequence of MAGE-A11:PCF11 (P43364 218-429): as above
Type: binding
Set-up: unit not given here
Outline: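 Single-point screen at 15 μM (0.25% DMSO) measuring disruption of GST-MAGEA11 (5 nM) binding to FAM-PCF11_4 peptide (200 nM) detected by Tb-anti-GST (5 nM). Buffer 50 mM Tris pH 7.5, 20 mM MgCl2, 0.1 mg/ml BSA, 1 mM DTT; 90 min at ~25 °C; 520/490 nm ratio converted to % inhibition versus controls.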

SMILES	TR-FRET signal
CCCN(CCCCNc1ccnc2cc(Cl)ccc12)Cc1cc(Br)ccc1O [SJ000311196]	5.724
